For one test, the system named is Pseudomonas fluorescens. As to the kind of experiment: Alternate Minimum Inhibitory Concentrations Test (Table 4), Ps.fl. The class given is cell-based. As to conditions: Table 4 alternate test, 250 ppm to 0.8 ppm in TSB, 72 hours, 30° C.; for MIC: Pseudomonas fluorescens, read-out: MIC Ps.fl. On the procedure: The compounds of Examples 1-8, 12-26, 28-33, 36-37, 39-42, 44-109, 111-114, and 116-120 were subjected also to the following alternate biocidal activity test procedures with the results as indicated in Table 4.
The MIC test measures the viability of Pseudomonas fluorescens inoculum in TSB when exposed for 72 hours to varying concentrations of test compound.
A 125 μl aliquot of 10,000 ppm test compound in acetone was added to 4.88 ml of TSB to provide a 250 ppm solution. From this solution, 100 μL was transferred to the first row of two microtiter plate columns. Both replicates and five additional compounds were all serially diluted 1:1 to a final concentration of 0.8 ppm in TSB.
Inoculation was accomplished by diluting a 24 hr Ps fl culture, four mls per 36 mls of phosphate buffer solution. A Dynatech autoinoculator was used to transfer 1.5 μl of this cell suspension to the microtiter plates. The plates were incubated at 30° C. for 3 days before the lowest concentration at which no growth occurs was recorded in the database.

Another test deals with Piricularia oryzae. As to the kind of experiment: whole plant or invertebrate. As to conditions: for pest or weed control at 200 ppm: read-out: % Control RB, application rate 200 ppm. The class given is in vivo.
Test [1] has as its system Pellicularia filamentosa (f. sp. sasiki). As to the kind of experiment: whole plant or invertebrate. Type of test: in vivo. To be noted: for pest or weed control at 200 ppm: 120 h, read-out: % Control RSB.
Another test concerns Phytophthora infestans. Briefly: whole plant or invertebrate. The class given is in vivo. To be noted: for pest or weed control at 200 ppm: Phytophthora infestans, in Solanum lycopersicum, 96 h.
Test [2] deals with Puccinia recondita (f. sp. tritici Races PKB and PLD). Briefly: whole plant or invertebrate. The class given is in vivo.
The test system of test [3] is Erysiphe graminis (f. sp. tritici). As to the kind of experiment: whole plant or invertebrate. To be noted: for pest or weed control at 12 ppm / pest or weed control at 200 ppm: Blumeria graminis, read-out: % Control WPM. Type of test: in vivo.
Test [4] has as its system Pseudoperonospora cubensis. Briefly: whole plant or invertebrate. Type of test: in vivo. As to conditions: Pseudoperonospora cubensis, in Cucumis sativus, 168 h; read-out: % Control CDM.
Setting [5] is: Puccinia recondita, 240 h, read-out: % Control WLR.
The mark [6] stands for this setting: read-out: % Control TLB, application rate 200 ppm.

Like-named read-outs stand apart in the source and are kept apart here. Some results are limits rather than exact numbers.

What is called MIC is the lowest concentration that inhibits growth of the organism. As for `CCCCCCCCNC(=O)/C=C\SC(=O)c1ccoc1` [Compound 62, N-octyl-cis-3-(3-furoylthio)acrylamide], in the test on Pseudomonas fluorescens, the MIC is above 250 µg/mL. The pest or weed control at 200 ppm in the test with Piricularia oryzae (Pyricularia oryzae) turned out to be 0%; in test [1], 0%; in the test on Phytophthora infestans (read-out: % Control TLB), 90%. For the same compound, the pest or weed control at 100 ppm in test [2] (setting [5]) was determined as 0%. In test [3], the pest or weed control at 12 ppm turned out to be 50%.

On to `C=CCC(=O)S/C=C\C(=O)NCCCCCCCC` [Compound 63, N-octyl-cis-3-[(3-butenoyl)thio]acrylamide], for which the MIC with Pseudomonas fluorescens was above 250 µg/mL. In addition, the pest or weed control at 200 ppm in the test on Piricularia oryzae (Pyricularia oryzae) came out at 0%; in test [1], 0%; in the test on Phytophthora infestans (setting [6]), 100%; in test [2] (setting [5]) it was 0%; in test [3], 0%.

As for `C=Cc1ccc(C(=O)S/C=C\C(=O)NCCCCCCCC)cc1` [Compound 64, N-octyl-cis-3-[(4-ethenylbenzoyl)thio]acrylamide], the MIC with Pseudomonas fluorescens is above 250 µg/mL. Besides, the pest or weed control at 200 ppm in the test with Piricularia oryzae (Pyricularia oryzae) worked out at 0%; in test [1], 0%; in the test on Phytophthora infestans (read-out: % Control TLB), 80%; in test [2] (setting [5]), 0%; in test [3], 0%.

As for `CCCCCCCCNC(=O)/C=C\SC(=O)c1ccsc1` [Compound 65, N-octyl-cis-3-[(3-thiophene)carbonylthio]acrylamide], in the test with Pseudomonas fluorescens, the minimal inhibitory concentration (MIC) was above 250 µg/mL. Further, the pest or weed control at 200 ppm in the test with Piricularia oryzae (Pyricularia oryzae) amounted to 0%; in test [1], 0%; in the test on Phytophthora infestans (setting [6]), 95%; in test [2] (setting [5]), 0%; in test [3] it was 0%.

Take `CCCCCCCCNC(=O)/C=C\SC(=O)/C=C/c1cccs1` [Compound 66, N-octyl-cis-3-[(trans-3-(2-thiophene)propenoyl)thio]acrylamide]: the minimum inhibitory concentration (MIC) with Pseudomonas fluorescens was above 250 µg/mL. In addition, the pest or weed control at 50 ppm in the test with Piricularia oryzae (Pyricularia oryzae, read-out: % Control RB, application rate 50 ppm) worked out at 50%. Besides, the pest or weed control at 200 ppm is 0% in test [1], 90% with Phytophthora infestans (read-out: % Control TLB), 0% in test [2] (setting [5]) and 0% in test [3].

As to `C=CC(=O)S/C=C\C(=O)NCCCCCCCC` [Compound 71, N-octyl-cis-3-(propenoylthio)acrylamide], the minimum inhibitory concentration (MIC) in the test with Pseudomonas fluorescens was above 250 µg/mL. Besides, the pest or weed control at 200 ppm stood at 0% in the test on Piricularia oryzae (Pyricularia oryzae), 0% in test [1], 100% in the test on Phytophthora infestans (setting [6]) and 0% in test [2] (setting [5]). Moreover, in test [3], the pest or weed control at 12 ppm was 50%.

As to `CCCCCCCCNC(=O)/C=C\SC(=O)c1cnc2ccccc2c1` [Compound 72, N-octyl-cis-3-[(3-quinoline)carbonylthio]acrylamide], the MIC in the test on Pseudomonas fluorescens was above 250 µg/mL. Further, the pest or weed control at 200 ppm in the test with Piricularia oryzae (Pyricularia oryzae) was 0%; in test [1], 50%; in the test with Phytophthora infestans (read-out: % Control TLB) it was 90%; in test [2] (setting [5]), 0%; in test [3], 0%.

`CCCCCCCCNC(=O)/C=C\SC(=O)CCOc1ccccc1` [Compound 79, N-octyl-cis-3-[(3-phenoxypropanoyl)thio]acrylamide]: the minimum inhibitory concentration (MIC) in the test on Pseudomonas fluorescens was above 250 µg/mL. For the same compound, the pest or weed control at 200 ppm in the test with Piricularia oryzae (Pyricularia oryzae) was determined as 0%; in test [1], 0%; in the test on Phytophthora infestans (setting [6]) it was 100%; in test [2] (setting [5]), 0%; in test [3] it was 0%.

On to `CCCCCCCCNC(=O)/C=C\SC(=O)c1ccc([N+](=O)[O-])cc1C` [Compound 99, N-octyl-cis-3-[(2-methyl-4-nitrobenzoyl)thio]acrylamide], for which the minimum inhibitory concentration (MIC) with Pseudomonas fluorescens was above 250 µg/mL. Moreover, the pest or weed control at 200 ppm in test [4] is 50%; in the test with Piricularia oryzae (Pyricularia oryzae), 75%; in the test with Phytophthora infestans (setting [6]), 0%; in test [2] (setting [5]), 0%; in test [3], 50%.

As for `CCCCCCCCNC(=O)/C=C\SC(=O)c1ccc(Cl)cc1Cl` [Compound 100, N-octyl-cis-3-[(2,4-dichlorobenzoyl)thio]acrylamide], in the test with Pseudomonas fluorescens, the MIC was above 250 µg/mL. Moreover, the pest or weed control at 200 ppm was 50% in test [4]; 0% in the test with Piricularia oryzae (Pyricularia oryzae); 0% in the test on Phytophthora infestans (setting [6]); 0% in test [2] (setting [5]); 50% in test [3].

Take `CCCCCCCCNC(=O)/C=C\SC(=O)C1C=CCC=C1C` (stereo not drawn) [Compound 101, N-octyl-cis-3-[(2-methylcyclohexa-2,5-diene)carbonylthio]acrylamide]: the minimal inhibitory concentration (MIC) in the test on Pseudomonas fluorescens is above 250 µg/mL. For the same compound, the pest or weed control at 200 ppm worked out at 50% in test [4]; 75% with Piricularia oryzae (Pyricularia oryzae); 0% with Phytophthora infestans (setting [6]); 0% in test [2] (setting [5]); 0% in test [3].

For the compound `CCCCCCCCNC(=O)/C=C\SC(=O)c1cccc(Cl)c1Cl` [Compound 102, N-octyl-cis-3-[(2,3-dichlorobenzoyl)thio]acrylamide], in the test with Pseudomonas fluorescens, the MIC was above 250 µg/mL. For the same compound, the pest or weed control at 200 ppm stood at 50% in test [4]; 50% in the test on Piricularia oryzae (Pyricularia oryzae); 0% in the test on Phytophthora infestans (setting [6]); 0% in test [2] (setting [5]); 0% in test [3].

For the compound `CCCCCCCCNC(=O)/C=C\SC(=O)c1ccc(Cl)c(Cl)c1` [Compound 103, N-octyl-cis-3-[(3,4-dichlorobenzoyl)thio]acrylamide], the MIC with Pseudomonas fluorescens was above 250 µg/mL. Besides, the pest or weed control at 200 ppm in test [4] was 50%; in the test on Piricularia oryzae (Pyricularia oryzae), 50%; in the test on Phytophthora infestans (setting [6]), 0%; in test [2] (setting [5]), 0%; in test [3], 85%.

On to `CCCCCCCCNC(=O)/C=C\SC(=O)c1ccc(Cl)c([N+](=O)[O-])c1` [Compound 104, N-octyl-cis-3-[(3-nitro-4-chlorobenzoyl)thio]acrylamide], for which, in the test on Pseudomonas fluorescens, the MIC is above 250 µg/mL. Besides, the pest or weed control at 200 ppm amounted to 0% in test [4]; 50% with Piricularia oryzae (Pyricularia oryzae); 0% in the test on Phytophthora infestans (setting [6]); 0% in test [2] (setting [5]); 0% in test [3].

As to `CCCCCCCCNC(=O)/C=C\SC(=O)c1ccc(C)cc1` [Compound 106, N-octyl-cis-3-[(4-methylbenzoyl)thio]acrylamide], the MIC in the test with Pseudomonas fluorescens was above 250 µg/mL. For the same compound, the pest or weed control at 200 ppm was determined as 50% in test [4]; 0% in the test with Piricularia oryzae (Pyricularia oryzae); 0% in the test on Phytophthora infestans (setting [6]); 0% in test [2] (setting [5]); 0% in test [3].

`CCCCCCCCNC(=O)/C=C\SC(=O)c1cc([N+](=O)[O-])ccc1[N+](=O)[O-]` [Compound 107, N-octyl-cis-3-[(2,5-dinitrobenzoyl)thio]acrylamide]: the MIC in the test with Pseudomonas fluorescens is above 250 µg/mL. Besides, the pest or weed control at 200 ppm in test [4] is 0%; in the test on Piricularia oryzae (Pyricularia oryzae), 0%; with Phytophthora infestans (setting [6]) it was 0%; in test [2] (setting [5]), 0%; in test [3], 50%.

`CCCCCCCCNC(=O)/C=C\SC(=O)c1cnccc1Cl` [Compound 108, N-octyl-cis-3-[(4-chloro-3-pyridine)carbonylthio]acrylamide]: in the test on Pseudomonas fluorescens, the MIC was above 250 µg/mL. The pest or weed control at 200 ppm in test [4] worked out at 90%; with Piricularia oryzae (Pyricularia oryzae), 0%; in the test with Phytophthora infestans (read-out: % Control TLB), 90%; in test [2] (setting [5]), 0%; in test [3], 0%.

With `CCCCCCCCNC(=O)/C=C\SC(=O)CCCCCCC(=O)OC` [Compound 110, N-octyl-cis-3-[(7-methoxycarbonylheptanoyl)thio]acrylamide], the pest or weed control at 200 ppm in test [4] came to 70%; in the test with Piricularia oryzae (Pyricularia oryzae), 75%; with Phytophthora infestans (read-out: % Control TLB), 90%; in test [2] (setting [5]), 0%; in test [3] it was 0%.

In the case of “N-octyl-cis-3-[(3-cyanobenzoyl)thio]acrylamide [Compound 67]”, in the test on Pseudomonas fluorescens, the “MIC Ps.fl” value is listed as above 250 Ppm. Moreover, in the test with Piricularia oryzae (in vivo), the “% Control RB” value stood at 0 % Control. The “% Control RSB” value in test [1] (in vivo) came out at 0 % Control. In the test with Phytophthora infestans (application rate 200 ppm), the “% Control TLB” value is 95 % Control. In addition, the “% Control WLR” value in test [2] (in vivo) was 0 % Control. Also, the “% Control WPM” value in test [3] (in vivo) is 0 % Control.

These data come from patent US5300672A (priority 1992, dated 1994).
